Measurements published in patent US20070060636A1, “High enantiomeric purity dexanabinol for pharmaceutical compositions” (priority 2002, published 2007).

Columns and labels:
[1] = CREMOPHOR EL:ethanol formulations, dissolution and stability after dilution in saline; type: physicochemical; conditions: for Stability following dilution in saline, Dilution 1/5 / Stability following dilution in saline, Dilution 1/10 / Stability following dilution in saline, Dilution 1/20: monitored 24 hours
Protocol: Once it was established that a cosolvent formulation made of CREMOPHOR EL® (polyoxyl 35 castor oil) and ethanol is appropriate to dissolve the drug, a matrix of such formulations was prepared at various concentrations (from 30 to 70% w/w of each ingredient) and with increasing amounts of dexanabinol of high enantiomeric purity (20, 50 and 100 mg/ml). The exact composition of these formulations is described in the left hand side of Table 5. The drug cosolvent concentrates were diluted at various ratios in saline and the stability of the drug in the resulting solutions was monitored for 24 hours.

[2] = single dose toxicity and pharmacokinetics, rabbit; type: in vivo, New Zealand White rabbits; conditions: for AUC(0-inf) / Cmax: plasma, single i.v. 25 mg/kg (NOAEL); for AUC∞ Ratio to Phase I / Cmax Ratio to Phase I / Cmax Ratio to Phase II: single i.v. 25 mg/kg; for AUC∞ Ratio to Phase I / Cmax Ratio to Phase I: vs human 150 mg Phase I; for Cmax Ratio to Phase II: vs human 150 mg Phase II
Protocol: The pharmacokinetics of dexanabinol of high enantiomeric purity formulated in CREMOPHOR EL®:ethanol as described in Example 4 were investigated in rats, rabbits, and monkeys following intravenous administration of single doses, and 14 and 28 days of repeated dosing. Human pharmacokinetics was studied during Phase I and Phase II clinical studies. Dexanabinol used in the pharmacokinetic studies was formulated as drug concentrates of 50 and 100 mg/ml and diluted with sterile 0.9% NaCl solution prior to intravenous (i.v.) administration to the desired final doses. Determination of dexanabinol concentrations in plasma and brain extracts was carried out using a validated Gas Chromatography-Mass Spectra (GC-MS) assay following solid phase extraction of the drug and derivatization. The limit of quantitation of the assay is 0.1 ng/ml.
Pharmacokinetic parameters were estimated by a non-compartmental method using WinNonlin Professional version 3.2 (Pharsight Corp., Mountain View, Calif.). The maximum plasma concentration (Cmax), when the drug is administered by infusion, is the concentration at the end of infusion. The Cmax following intravenous bolus administration is the value estimated by the software to be the concentration at t=0. The terminal slope (X) was estimated by linear regression through the last time points and used to calculate the terminal half-life (t1/2) from the following equation: t1/2=0.693/λ The area under the curve from time of dosing through the last time point (AUCz) was calculated by the linear trapezoid method. The AUC extrapolated to infinity (AUC∞) was calculated from the following equation: AUC∞=AUCz+Cz/λ where Cz is the concentration at the last time point predicted by the linear regression. AUC∞ was normalized for dose (mg/kg) and presented as AUC∞/Dose. Mean residence time (MRT), when the drug is administered by infusion is described by the following equation: MRT=(AUMC/AUC)−(TI)/2 Mean residence time after i.v. bolus administration is described by the following equation: MRT=(AUMC/AUC) where AUMC is the area under the first moment curve and TI is the length of infusion. Plasma clearance (CL), and the apparent volume of distribution at steady state (Vss) were calculated from the following equations: CL=Dose/AUC∞ Vss=MRT×CL
Table 6 summarizes the maximum plasma concentration (Cmax) and the area under the plasma concentration versus time curve (AUC) observed at the NOAEL doses cited above, as well as the animal to human exposure ratios (ER) for dexanabinol of high enantiomeric purity, expressed as the ratio of the pharmacokinetic (PK) parameter to that observed for a 150 mg dose in a Phase I study in human volunteers and in Phase II study in patients suffering from severe traumatic brain injury (TBI).

[3] = ocular toxicity, topical instillation for five days four times daily; type: in vivo, rabbits; conditions: dexanabinol in SME, slit lamp
Protocol: Ocular toxicity was tested as follows. Two groups of five animals each received topical instillation of dexanabinol in SME and blank SME for five days four times daily. The animals were examined daily with a slit lamp for ocular discharge, conjunctival hyperemia, corneal fluorescein staining and iris hyperemia. Results were scored on a 0.0-4.0 scale in 0.5 steps.

[4] = 20 mg/ml in 30% CREMOPHOR EL/70% ethanol
[5] = 20 mg/ml in 50% CREMOPHOR EL/50% ethanol
[6] = 20 mg/ml in 70% CREMOPHOR EL/30% ethanol
[7] = 50 mg/ml in 30% CREMOPHOR EL/70% ethanol
[8] = 50 mg/ml in 50% CREMOPHOR EL/50% ethanol
[9] = 50 mg/ml in 70% CREMOPHOR EL/30% ethanol
[10] = 100 mg/ml in 30% CREMOPHOR EL/70% ethanol
[11] = 100 mg/ml in 50% CREMOPHOR EL/50% ethanol
[12] = 100 mg/ml in 70% CREMOPHOR EL/30% ethanol
[13] = New Zealand White, iv, rabbit female
[14] = New Zealand White, iv, rabbit male
[15] = both sexes, New Zealand White, iv, rabbit male & female

CCCCCCC(C)(C)c1cc(O)c2c(c1)OC(C)(C)[C@H]1CC=C(CO)C[C@H]21 [dexanabinol, 1,1-dimethylheptyl-(3S,4S)-7-hydroxy-Δ^6-tetrahydrocannabinol]
amount of dexanabinol dissolved by CREMOPHOR EL:ethanol cosolvent formulations [1]: at least 100 mg/ml | Stability following dilution in saline, Dilution 1/5 [1, 4]: Stable | Stability following dilution in saline, Dilution 1/10 [1, 4]: Stable | Stability following dilution in saline, Dilution 1/20 [1, 4]: Stable | Stability following dilution in saline, Dilution 1/5 [1, 5]: Stable | Stability following dilution in saline, Dilution 1/10 [1, 5]: Stable | Stability following dilution in saline, Dilution 1/20 [1, 5]: Stable | Stability following dilution in saline, Dilution 1/5 [1, 6]: Stable | Stability following dilution in saline, Dilution 1/10 [1, 6]: Stable | Stability following dilution in saline, Dilution 1/20 [1, 6]: Stable | Stability following dilution in saline, Dilution 1/5: crystals appeared at [1, 7]: appeared at 2 hours | Stability following dilution in saline, Dilution 1/10: crystals appeared at [1, 7]: 2 h | Stability following dilution in saline, Dilution 1/20: crystals appeared at [1, 7]: 2.5 h | Stability following dilution in saline, Dilution 1/5: stable at least [1, 8]: least 7 hours | Stability following dilution in saline, Dilution 1/10: stable at least [1, 8]: least 4 hours | Stability following dilution in saline, Dilution 1/20: stable at least [1, 8]: ≥ 7 h | Stability following dilution in saline, Dilution 1/5: stable at least [1, 9]: least 7 hours | Stability following dilution in saline, Dilution 1/10: stable at least [1, 9]: least 7 hours | Stability following dilution in saline, Dilution 1/20: stable at least [1, 9]: ≥ 7 h | stability after dilution with saline ([1]; 50 mg/ml in 70:30 CREMOPHOR EL:ethanol, all ratios from 1:5 to 1:20): stable | Stability following dilution in saline, Dilution 1/5: crystals appeared at [1, 10]: 45 min | Stability following dilution in saline, Dilution 1/10: crystals appeared at [1, 10]: 0.917 h | Stability following dilution in saline, Dilution 1/20: crystals appeared at [1, 10]: 1.5 h | Stability following dilution in saline, Dilution 1/5: crystals appeared at [1, 11]: 90 min | Stability following dilution in saline, Dilution 1/10: crystals appeared at [1, 11]: 1.5 h | Stability following dilution in saline, Dilution 1/20: crystals appeared at [1, 11]: 1.5 h | Stability following dilution in saline, Dilution 1/5: crystals appeared at [1, 12]: appeared at 2 hours | Stability following dilution in saline, Dilution 1/10: crystals appeared at [1, 12]: 2 h | Stability following dilution in saline, Dilution 1/20: crystals appeared at [1, 12]: 3.5 h | AUC(0-inf) [2, 13]: 16200 ng·h/mL | Cmax [2, 13]: 34500 ng/mL | AUC(0-inf) [2, 14]: 20100 ng·h/mL | Cmax [2, 14]: 33800 ng/mL | NOAEL ([2]; New Zealand White, rabbit, in vivo, iv, single dose i.v., read-out: no observed adverse effect level (NOAEL)): 25 mg/kg | AUC(0-inf) [2, 15]: 18200 ng·h/mL | Cmax [2, 15]: 33400 ng/mL | AUC∞ Ratio to Phase I ([2]; rabbit female): 5.1 | Cmax Ratio to Phase I ([2]; rabbit female): 6.9 | Cmax Ratio to Phase II ([2]; rabbit female): 17.6 | AUC∞ Ratio to Phase I ([2]; rabbit male & female): 5.7 | Cmax Ratio to Phase I ([2]; rabbit male & female): 6.7 | Cmax Ratio to Phase II ([2]; rabbit male & female): 17.0 | AUC∞ Ratio to Phase I ([2]; rabbit male): 6.3 | Cmax Ratio to Phase I ([2]; rabbit male): 6.8 | Cmax Ratio to Phase II ([2]; rabbit male): 17.2 | conjunctival injection and discharge [3]: mild conjunctival injection and discharge that did not significantly differ from SME-blank treated animals | corneal staining, corneal opacities and iris hyperemia [3]: did not occur in any of the animals
